Test results taken from ChEMBL document CHEMBL5214936, “Synthesis and evaluation of glycosylated quercetin to enhance neuroprotective effects on cerebral ischemia-reperfusion” (Bioorg Med Chem, 2022).
Calls of active or inactive are those of the source. No cut-off for these calls is given here.

How the values were obtained:
[1] = n-Octanol-water partition coefficient, logP of the compound at 1 mg and measured after 2 hrs by HPLC analysis; format: physicochemical
[2] = Stability of compound in phosphate buffer assessed as parent compound remaining after 48 hrs by HPLC analysis; format: physicochemical; settings: read-out: Stability
[3] = tested on: PC-12; experiment: Cytotoxicity against rat PC-12 cells assessed as inhibition of cell viability at 20 to 50 uM incubated for 24 hrs by MTT assay; format: toxicity, cell-based; settings: pc-12, 24 h, dose 20-50 µM
[4] = Cytotoxicity against mouse BEND3 cells assessed as inhibition of cell viability at 20 to 50 uM incubated for 24 hrs by MTT assay; format: toxicity, cell-based; settings: bend3, 24 h, dose 20-50 µM
[5] = tested on: PC-12; experiment: Neuroprotective activity against H2O2-induced cytotoxicity in rat PC12 cells assessed as increase in cell viability at 2.5 to 100 uM preincubated for 2 hrs followed by H2O2 stimulation and measured after 2 hrs by MTT assay; format: functional, cell-based; settings: dose 2.5-100 µM
[6] = tested on: PC-12; experiment: Neuroprotective activity in rat PC12 cells assessed as reduction in H2O2-induced ROS generation at 20 to 100 uM preincubated for 2 hrs followed by H2O2 stimulation and measured after 2 hrs by DCFH-DA staining based fluorescence microscopic analysis; format: functional, cell-based; settings: dose 20-100 µM
[7] = tested on: PC-12; experiment: Antioxidant activity in rat PC12 cells assessed as reduction in H2O2-induced ROS level at 20 to 100 uM preincubated for 2 hrs followed by H2O2 stimulation and measured after 2 hrs by DCFH-DA staining based fow cytometry; format: functional; design: scale not given: the % may be the effect or the level left; settings: dose 20-100 µM
[8] = tested on: Rattus norvegicus; experiment: (§1) Neuroprotective activity against middle cerebral artery occlusion induced cerebral ischemia reperfusion rat model assessed infarct volume volume at 10 mg/kg, ip preincubated for 0.5 hrs followed by reperfusion and measured after 24 hrs by TTC staining based assay relative to control; format: functional, organism-based
[9] = tested on: Rattus norvegicus; experiment: as §1, with “decrease in morphological changes in brain” for “infarct volume volume”, “hematoxylin and eosin” for “TTC”, “microscopy” for “assay relative to control”; format: functional, organism-based
[10] = tested on: Rattus norvegicus; experiment: Neuroprotective activity against middle cerebral artery occlusion induced cerebral ischemia reperfusion rat model assessed decrease in neuronal loss in brain at 10 mg/kg, ip preincubated for 0.5 hrs followed by reperfusion and measured after 24 hrs by hematoxylin and eosin staining based microscopy; format: functional, organism-based
[11] = tested on: Rattus norvegicus; experiment: Neuroprotective activity against middle cerebral artery occlusion induced cerebral ischemia reperfusion rat model assessed as decrease in brain SOD level at 10 mg/kg, ip preincubated for 0.5 hrs followed by reperfusion and measured after 24 hrs; format: functional, organism-based
[12] = tested on: Rattus norvegicus; experiment: Neuroprotective activity against middle cerebral artery occlusion induced cerebral ischemia reperfusion rat model assessed as decrease in brain MDA level at 10 mg/kg, ip preincubated for 0.5 hrs followed by reperfusion and measured after 24 hrs; format: functional, organism-based
[13] = tested on: Rattus norvegicus; experiment: Neuroprotective activity against middle cerebral artery occlusion induced cerebral ischemia reperfusion rat model assessed as increase in brain GSH level at 10 mg/kg, ip preincubated for 0.5 hrs followed by reperfusion and measured after 24 hrs; format: functional, organism-based
[14] = tested on: PC-12; experiment: Cytotoxicity against rat PC-12 cells assessed as inhibition of cell viability at 2.5 to 50 uM incubated for 24 hrs by MTT assay; format: toxicity, cell-based; settings: pc-12, 24 h, dose 2.5-50 µM
[15] = Cytotoxicity against mouse BEND3 cells assessed as inhibition of cell viability at 2.5 to 50 uM incubated for 24 hrs by MTT assay; format: toxicity, cell-based; settings: dose 2.5-50 µM, read-out: Activity

Row | SMILES | logP at 2 h [1] | remaining at 48 h [2] | Activity [3] | Activity [4] | Activity [5] | Activity [6] | Activity [7] | Activity [8] | Activity [9] | Activity [10] | Activity [11] | Activity [12] | Activity [13] | Activity [14] | inhibition at 24 h, up to 50 µM [15]
1 | O=c1c(O)c(-c2ccc(O)c(O)c2)oc2cc(O)cc(O)c12 [QUERCETIN] | 1.38 | 11.2% | Toxic | Toxic | Active | Active | 21.56% | Active | Active | Active | Active | Active | Active |  | 
2 | O=c1c(O)c(-c2ccc(O)c(OCc3cn(C[C@H]4O[C@@H](O)[C@H](O)[C@@H](O)[C@@H]4O)nn3)c2)oc2cc(OCc3cn(C[C@H]4O[C@@H](O)[C@H](O)[C@@H](O)[C@@H]4O)nn3)cc(O)c12 | -1.12 | 81.5% |  |  | Active | Active | 5.06% | Active | Active | Active | Active | Active | Active | > 80% | > 80%
3 | O=c1c(O)c(-c2ccc(O)c(O)c2)oc2cc(OCc3cn(C[C@H]4O[C@@H](O)[C@H](O)[C@@H](O)[C@@H]4O)nn3)cc(O)c12 | -0.23 | 73.2% |  |  | Active | Active | 15.2% | Active | Active | Active | Active | Active | Active | > 80% | > 80%
